Data on 13 compounds can be found in paper PMC10682911 (Saudi Pharmaceutical Journal : SPJ, 2023).

Values joined by “and” are separate entries in the source; they are usually repeats but may differ in a detail not shown here. Identical values can stand only once.

The target in one experiment is hCA I (Homo sapiens, UniProt P00915). Kind of experiment: hCA I inhibition, stopped-flow technique. It counts as biochemical.
The next experiment has as its target hCA II (Homo sapiens, UniProt P00918). Kind of experiment: hCA II inhibition, stopped-flow technique. It counts as biochemical.
Another experiment has as its target hCA IX (Homo sapiens, UniProt Q16790). The experiment is described as follows: biochemical. Particulars: for Ki: Ki hCA IX, stopped-flow technique, mean from 3 different assays; for Selectivity analysis hCA I/IX / Selectivity analysis hCA II/IX: SI; for Selectivity analysis hCA I/IX: hCA IX over hCA I (ratio of Ki); for Selectivity analysis hCA II/IX: hCA IX over hCA II (ratio of Ki).

Another experiment has as its target hCA XII (Homo sapiens, UniProt O43570). Kind of experiment: hCA XII inhibition, stopped-flow technique. It counts as biochemical. To be noted: for Selectivity analysis hCA I/XII / Selectivity analysis hCA II/XII: SI; for Selectivity analysis hCA I/XII: hCA XII over hCA I (ratio of Ki); for Selectivity analysis hCA II/XII: hCA XII over hCA II (ratio of Ki).

Sequence of hCA I (P00915 whole entry): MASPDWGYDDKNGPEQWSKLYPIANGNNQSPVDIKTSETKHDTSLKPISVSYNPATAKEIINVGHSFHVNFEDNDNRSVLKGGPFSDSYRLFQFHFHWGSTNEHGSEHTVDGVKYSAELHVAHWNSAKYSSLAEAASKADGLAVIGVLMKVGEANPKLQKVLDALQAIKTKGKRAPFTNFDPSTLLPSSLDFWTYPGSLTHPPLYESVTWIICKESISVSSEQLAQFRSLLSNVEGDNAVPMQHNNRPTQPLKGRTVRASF
Sequence of hCA XII (O43570 25-354): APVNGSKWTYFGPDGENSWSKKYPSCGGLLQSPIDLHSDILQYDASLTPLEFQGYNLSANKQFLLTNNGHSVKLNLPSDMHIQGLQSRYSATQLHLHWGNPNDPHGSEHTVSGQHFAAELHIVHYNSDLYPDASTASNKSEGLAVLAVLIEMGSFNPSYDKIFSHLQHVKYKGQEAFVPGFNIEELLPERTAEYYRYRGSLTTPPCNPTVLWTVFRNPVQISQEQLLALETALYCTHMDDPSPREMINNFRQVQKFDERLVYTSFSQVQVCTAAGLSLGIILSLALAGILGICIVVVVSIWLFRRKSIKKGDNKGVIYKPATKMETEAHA

With `COc1ccc(C(C)=NNC(=O)CSc2nc3ccccc3c(=O)n2CCc2ccc(S(N)(=O)=O)cc2)cc1OC` [Compound 19, 4-(2-(2-((2-(2-(1-(3,4-Dimethoxyphenyl)ethylidene)hydrazineyl)-2-oxoethyl)thio)-4-oxoquinazolin-3(4H)-yl)ethyl)benzenesulfonamide], the affinity on hCA I corresponds to a Ki of 825 nM. Further, at hCA II, affinity was put at a Ki of 189 nM. Moreover, at hCA IX, the affinity, expressed as Ki, was 40.3 nM; the “Selectivity analysis hCA I/IX” value came to 20.46; the “Selectivity analysis hCA II/IX” value is given as 4.70. Also, on hCA XII, the Ki – broadly, a dissociation constant, usually derived from enzyme kinetics or from competition with a known ligand – turned out to be 68.1 nM; the “Selectivity analysis hCA I/XII” value turned out to be 12.108; the “Selectivity analysis hCA II/XII” value came to 2.77.

With `NS(=O)(=O)c1ccc(CCn2c(SCC(=O)NN=Cc3ccc4c(c3)OCO4)nc3ccccc3c2=O)cc1` [Compound 15, 4-(2-(2-((2-(2-(Benzo[d][1,3]dioxol-5-ylmethylene)hydrazineyl)-2-oxoethyl)thio)-4-oxoquinazolin-3(4H)-yl)ethyl)benzenesulfonamide], the affinity at hCA I, expressed as Ki, was 692 nM. Also, the affinity at hCA II corresponds to a Ki of 101 nM. Also, on hCA IX, the affinity corresponds to a Ki of 16.5 nM, the “Selectivity analysis hCA I/IX” value was 41.95 and the “Selectivity analysis hCA II/IX” value was 6.10. At hCA XII, the inhibition constant Ki came to 52.8 nM, the “Selectivity analysis hCA I/XII” value is reported as 13.11 and the “Selectivity analysis hCA II/XII” value is 1.91.

For the compound `COc1ccc(C=NNC(=O)CSc2nc3ccccc3c(=O)n2CCc2ccc(S(N)(=O)=O)cc2)cc1OC` [Compound 12, 4-(2-(2-((2-(2-(3,4-Dimethoxybenzylidene)hydrazineyl)-2-oxoethyl)thio)-4-oxoquinazolin-3(4H)-yl)ethyl)benzenesulfonamide], the Ki at hCA I came out at 1060 nM. Moreover, the affinity at hCA II, expressed as Ki, was 260 nM. Also, at hCA IX, the affinity, expressed as Ki, was 88.3 nM; the “Selectivity analysis hCA I/IX” value was 11.98; the “Selectivity analysis hCA II/IX” value came out at 2.94. For the same compound, on hCA XII, the inhibitory constant (Ki) was found to be 69.2 nM, the “Selectivity analysis hCA I/XII” value worked out at 15.289 and the “Selectivity analysis hCA II/XII” value was 3.75.

In turn, `COc1ccc(C=NNC(=O)CSc2nc3ccccc3c(=O)n2CCc2ccc(S(N)(=O)=O)cc2)cc1` [Compound 10, 4-(2-(2-((2-(2-(4-Methoxybenzylidene)hydrazineyl)-2-oxoethyl)thio)-4-oxoquinazolin-3(4H)-yl)ethyl)benzenesulfonamide] came in with an inhibition constant (Ki) at hCA I of 558 nM. Besides, the Ki at hCA II is 83.4 nM. Also, at hCA IX, the Ki stood at 49.7 nM, the “Selectivity analysis hCA I/IX” value is recorded as 11.23 and the “Selectivity analysis hCA II/IX” value came out at 1.68. At hCA XII, the affinity corresponds to a Ki of 46.5 nM, the “Selectivity analysis hCA I/XII” value is 12.00 and the “Selectivity analysis hCA II/XII” value worked out at 1.79.

As for `COc1ccc(C=NNC(=O)CSc2nc3ccccc3c(=O)n2CCc2ccc(S(N)(=O)=O)cc2)c(OC)c1` [Compound 11, 4-(2-(2-((2-(2-(2,4-Dimethoxybenzylidene)hydrazineyl)-2-oxoethyl)thio)-4-oxoquinazolin-3(4H)-yl)ethyl)benzenesulfonamide], the Ki at hCA I came out at 2300 nM. Besides, on hCA II, the Ki stood at 50.9 nM. Further, at hCA IX, the Ki came out at 52.7 nM and the “Selectivity analysis hCA I/IX” value came out at 43.60. In addition, at hCA XII, the affinity, expressed as Ki, was 74.3 nM; the “Selectivity analysis hCA I/XII” value amounted to 30.928; the “Selectivity analysis hCA II/XII” value is listed as 0.68.

For `COc1cc(C(C)=NNC(=O)CSc2nc3ccccc3c(=O)n2CCc2ccc(S(N)(=O)=O)cc2)cc(OC)c1OC` [Compound 22, 4-(2-(4-Oxo-2-((2-oxo-2-(2-(1-(3,4,5-trimethoxyphenyl)ethylidene)hydrazineyl)ethyl)thio)quinazolin-3(4H)-yl)ethyl)benzenesulfonamide], the affinity on hCA I corresponds to a Ki of 2310 nM. Also, the inhibitory constant (Ki) on hCA II came to 333 nM. Moreover, on hCA IX, the affinity corresponds to a Ki of 184 nM, the “Selectivity analysis hCA I/IX” value is reported as 12.52 and the “Selectivity analysis hCA II/IX” value stood at 1.80. In addition, at hCA XII, the Ki was 85.2 nM, the “Selectivity analysis hCA I/XII” value is 27.09 and the “Selectivity analysis hCA II/XII” value came to 3.90.

In turn, `COc1cc(C=NNC(=O)CSc2nc3ccccc3c(=O)n2CCc2ccc(S(N)(=O)=O)cc2)cc(OC)c1OC` [Compound 13, 4-(2-(4-Oxo-2-((2-Oxo-2-(2-(3,4,5-trimethoxybenzylidene)hydrazineyl)ethyl)thio)quinazolin-3(4H)-yl)ethyl)benzenesulfonamide] displayed a Ki on hCA I of 1980 nM. The compound further had an inhibition constant (Ki) at hCA II of 665 nM. On hCA IX, the inhibitory constant (Ki) was 124 nM, the “Selectivity analysis hCA I/IX” value is on record as 16.05 and the “Selectivity analysis hCA II/IX” value is listed as 5.38. On hCA XII, the Ki came out at 91.5 nM, the “Selectivity analysis hCA I/XII” value stood at 21.66 and the “Selectivity analysis hCA II/XII” value was 7.27.

On to `NS(=O)(=O)c1ccc(CCn2c(SCC(=O)NN=Cc3ccc(O)cc3)nc3ccccc3c2=O)cc1` [Compound 7, 4-(2-(2-((2-(2-(4-Hydroxybenzylidene)hydrazineyl)-2-oxoethyl)thio)-4-oxoquinazolin-3(4H)-yl)ethyl)benzenesulfonamide], for which the affinity on hCA I corresponds to a Ki of 665 nM. In addition, the Ki at hCA II was 76.4 nM. Also, on hCA IX, the Ki is 62.6 nM and 62.2 nM; the “Selectivity analysis hCA I/IX” value came to 10.68; the “Selectivity analysis hCA II/IX” value worked out at 1.23. For the same compound, on hCA XII, the affinity, expressed as Ki, was 19.5 nM; the “Selectivity analysis hCA I/XII” value stood at 34.08; the “Selectivity analysis hCA II/XII” value came out at 3.92.

As to `COc1ccc(OC)c(C(C)=NNC(=O)CSc2nc3ccccc3c(=O)n2CCc2ccc(S(N)(=O)=O)cc2)c1` [Compound 20, 4-(2-(2-((2-(2-(1-(2,5-Dimethoxyphenyl)ethylidene)hydrazineyl)-2-oxoethyl)thio)-4-oxoquinazolin-3(4H)-yl)ethyl)benzenesulfonamide], the affinity at hCA I corresponds to a Ki of 1690 nM. This compound came in with an inhibition constant (Ki) at hCA II of 228 nM. Further, on hCA IX, the inhibitory constant (Ki) stood at 29.4 nM, the “Selectivity analysis hCA I/IX” value worked out at 57.65 and the “Selectivity analysis hCA II/IX” value is recorded as 7.77. On hCA XII, affinity was put at a Ki of 79.9 nM, the “Selectivity analysis hCA I/XII” value worked out at 21.21 and the “Selectivity analysis hCA II/XII” value amounted to 2.86.

For the compound `NNC(=O)CSc1nc2ccccc2c(=O)n1CCc1ccc(S(N)(=O)=O)cc1` [Compound 3, 4-(2-(2-((2-hydrazineyl-2-oxoethyl)thio)-4-oxoquinazolin-3(4H)-yl)ethyl)benzenesulfonamide], on hCA IX, the “Selectivity analysis hCA II/IX” value amounted to 0.31.

Take `COc1cc(OC)cc(C(C)=NNC(=O)CSc2nc3ccccc3c(=O)n2CCc2ccc(S(N)(=O)=O)cc2)c1` [Compound 21, 4-(2-(2-((2-(2-(1-(3,5-Dimethoxyphenyl)ethylidene)hydrazineyl)-2-oxoethyl)thio)-4-oxoquinazolin-3(4H)-yl)ethyl)benzenesulfonamide]: at hCA I, the inhibition constant (Ki) came to 1160 nM. Also, the affinity at hCA II corresponds to a Ki of 131 nM. Besides, on hCA IX, the Ki was found to be 52.7 nM, the “Selectivity analysis hCA I/IX” value is given as 21.95 and the “Selectivity analysis hCA II/IX” value came to 2.48. For the same compound, on hCA XII, the inhibition constant Ki turned out to be 58 nM, the “Selectivity analysis hCA I/XII” value is reported as 19.95 and the “Selectivity analysis hCA II/XII” value turned out to be 2.25.

Compound `NS(=O)(=O)c1ccc(CCn2c(SCC(=O)NN=Cc3cccc(O)c3)nc3ccccc3c2=O)cc1` [Compound 6, 4-(2-(2-((2-(2-(3-Hydroxybenzylidene)hydrazineyl)-2-oxoethyl)thio)-4-oxoquinazolin-3(4H)-yl)ethyl)benzenesulfonamide] showed an inhibitory constant (Ki) at hCA I of 957 nM. On hCA II, the affinity, expressed as Ki, was 90.1 nM. In addition, on hCA IX, affinity was put at a Ki of 38.9 nM, the “Selectivity analysis hCA I/IX” value was determined as 24.60 and the “Selectivity analysis hCA II/IX” value amounted to 2.31. On hCA XII, the affinity corresponds to a Ki of 34.7 nM, the “Selectivity analysis hCA I/XII” value was 27.58 and the “Selectivity analysis hCA II/XII” value turned out to be 2.60.

In turn, `COc1cc(C=NNC(=O)CSc2nc3ccccc3c(=O)n2CCc2ccc(S(N)(=O)=O)cc2)ccc1O` [Compound 14, 4-(2-(2-((2-(2-(4-Hydroxy-3-methoxybenzylidene)hydrazineyl)-2-oxoethyl)thio)-4-oxoquinazolin-3(4H)-yl)ethyl)benzenesulfonamide] showed an inhibitory constant (Ki) at hCA I of 857 nM. This compound had a Ki on hCA II of 29.7 nM. In addition, on hCA IX, affinity was put at a Ki of 60.1 nM, the “Selectivity analysis hCA I/IX” value came to 14.25 and the “Selectivity analysis hCA II/IX” value was determined as 0.50. On hCA XII, the Ki was determined as 14.2 nM, the “Selectivity analysis hCA I/XII” value is on record as 60.35 and the “Selectivity analysis hCA II/XII” value was 2.09.
